Active and inactive are the calls of the source.
Legend:
[1] = target: T1, SUMO-activating enzyme (Homo sapiens, UniProt Q9UBT2); assay: SUMOylation inhibitor hit validation, confirmation, SUMOylation inhibitor project, biochemical, AlphaScreen (AID 2018); type: functional
[2] = target: T1, SUMO-activating enzyme; assay: inhibitors of in vitro SUMOylation cascade, primary screen, biochemical, HTRF, uHTS (AID 2006); type: protein-complex assay
[3] = target: T2, Endoribonuclease toxin MazF (Escherichia coli K-12, UniProt P0AE70); assay: MazF toxin RNase activators, dose response, biochemical, fluorescence, single-stranded RNA substrate, uHTS hits (AID 588481); type: functional
T2 sequence (P0AE70 whole entry): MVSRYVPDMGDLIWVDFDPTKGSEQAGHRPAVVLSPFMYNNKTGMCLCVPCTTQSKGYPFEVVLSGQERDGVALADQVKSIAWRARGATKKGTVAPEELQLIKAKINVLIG

[4] = target: T2, Endoribonuclease toxin MazF; assay: fluorescent RNA oligo signal without MazF, dose response, counter-screen for MazEF activator project, biochemical, fluorescence, single-stranded RNase substrate (AID 588502); type: functional
[5] = tested on: Saccharomyces cerevisiae; assay: NALP1 inhibitor project selectivity study, Caspase-1/ASC signal blockade IC50 in S. cerevisiae (AID 488863); type: functional, organism-based
[6] = target: NACHT, LRR and PYD domains-containing protein 1 (Homo sapiens, UniProt Q9C000); assay: NALP1 inhibitors in yeast, dose response, luminescent (AID 488860); type: functional
[7] = target: X-box-binding protein 1 (Homo sapiens, UniProt P17861); type: functional, Cricetulus griseus;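 also: confirmatory dose-response counter-screen serving a CHOP assay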
[8] = target: T3, Epstein-Barr nuclear antigen 1 (Epstein-Barr virus (strain B95-8) (HHV-4) (Human herpesvirus 4), UniProt P03211); assay: EBNA-1 inhibitors, dose response, biochemical, fluorescence polarization, 1536-well (AID 2381); parameters: species or system human gammaherpesvirus 4;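 also: fluorescence polarization of a Cy5 DNA probe bound by EBNA-1 protein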
T3 sequence (P03211 whole entry): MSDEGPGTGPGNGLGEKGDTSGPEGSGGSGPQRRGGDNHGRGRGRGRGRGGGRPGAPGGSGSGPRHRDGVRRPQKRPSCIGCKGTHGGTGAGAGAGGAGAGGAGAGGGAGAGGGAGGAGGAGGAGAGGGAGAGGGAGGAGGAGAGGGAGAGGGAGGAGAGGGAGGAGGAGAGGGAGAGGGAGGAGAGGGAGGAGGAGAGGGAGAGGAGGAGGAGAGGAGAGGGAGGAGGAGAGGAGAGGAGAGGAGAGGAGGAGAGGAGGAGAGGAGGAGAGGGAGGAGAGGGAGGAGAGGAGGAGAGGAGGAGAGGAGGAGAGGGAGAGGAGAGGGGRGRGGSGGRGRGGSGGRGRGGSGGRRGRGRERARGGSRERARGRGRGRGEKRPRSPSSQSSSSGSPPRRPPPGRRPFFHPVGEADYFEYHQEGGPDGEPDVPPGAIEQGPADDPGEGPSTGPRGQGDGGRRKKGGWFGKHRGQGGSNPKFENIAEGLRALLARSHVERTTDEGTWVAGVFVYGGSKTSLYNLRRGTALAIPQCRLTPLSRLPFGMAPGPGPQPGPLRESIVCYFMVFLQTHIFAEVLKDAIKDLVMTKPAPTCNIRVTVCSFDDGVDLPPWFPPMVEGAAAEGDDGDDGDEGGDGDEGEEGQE

[9] = target: T4, Lytic switch protein BZLF1 (Epstein-Barr virus (strain B95-8) (HHV-4) (Human herpesvirus 4), UniProt P03206); assay: EBV ZTA inhibitors, dose response, counter-screen for EBNA-1 inhibitor project, biochemical, fluorescence polarization, Epstein-Barr virus, 1536-well (AID 2377); parameters: species or system human gammaherpesvirus 4;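 also: fluorescence polarization of Cy5-labelled ZRE DNA probe bound by purified Zta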
T4 sequence (P03206 whole entry): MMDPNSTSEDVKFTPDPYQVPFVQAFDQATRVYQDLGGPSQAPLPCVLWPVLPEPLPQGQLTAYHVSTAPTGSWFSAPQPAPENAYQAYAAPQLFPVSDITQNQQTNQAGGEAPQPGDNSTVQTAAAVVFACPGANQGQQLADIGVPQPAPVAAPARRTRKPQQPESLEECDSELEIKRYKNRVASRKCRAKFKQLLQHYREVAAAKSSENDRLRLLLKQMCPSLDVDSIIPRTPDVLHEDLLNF

[10] = cytotoxicity in HEK-293T cells, dose response, cytotoxicity control for BCR NF-kB inhibitor project, luminescence, B-cell screen hits (AID 489021); type: functional, cell-based;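 also: HEK-293T cells carrying an NF-kB luciferase reporter; cells exposed to compound for about 14 hours before viability readout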
[11] = tested on: INS1; assay: beta cell apoptosis inhibitors, cytokine rescue, dose response, luminescence, retest (AID 449756); type: functional, cell-based; details: Rattus norvegicus;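 also: cell death triggered by IL-1 beta plus TNF-alpha plus IFN-gamma mixture; protective hits raise ATP signal compared with cytokine alone wells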
[12] = Shn3 3'UTR reporter inhibitors, dose response, cell-based, Clone20 osteoblasts, firefly luciferase, cherry-picked (AID 624132); type: functional;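 also: firefly luciferase luminescence from reporter carrying the Shn3 3'UTR in osteoblasts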
[13] = HepG2 cell cytotoxicity, dose response, cytotoxicity control for Shn3 inhibitor project, CellTiter-Glo, cherry-picked (AID 624134); type: functional, cell-based
[14] = control 3'UTR Renilla luciferase suppression, dose response, counter-screen for Shn3 inhibitor project, cell-based, Clone20-Shn3RL, cherry-picked (AID 624133); type: functional
[15] = target: T5, Galanin receptor type 3 (Homo sapiens, UniProt O60755); assay: Fluorescence-based cell-based primary high throughput dose response assay to identify antagonists of the Galanin Receptor 3 (GalR3).; type: functional
T5 sequence (O60755 whole entry): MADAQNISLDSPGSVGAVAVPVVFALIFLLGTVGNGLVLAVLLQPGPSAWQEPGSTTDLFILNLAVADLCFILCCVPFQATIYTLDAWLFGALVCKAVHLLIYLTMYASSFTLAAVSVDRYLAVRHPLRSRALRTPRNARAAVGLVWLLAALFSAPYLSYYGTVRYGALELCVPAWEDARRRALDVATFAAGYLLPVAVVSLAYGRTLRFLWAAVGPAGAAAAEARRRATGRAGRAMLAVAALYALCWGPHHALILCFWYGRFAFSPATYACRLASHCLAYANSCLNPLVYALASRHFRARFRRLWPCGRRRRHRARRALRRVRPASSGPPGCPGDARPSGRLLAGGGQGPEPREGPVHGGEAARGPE

[16] = cells; type: functional, cell-based; details: HEK-CNG
[17] = target: Beta-galactosidase (Escherichia coli, UniProt Q8VNN2); type: functional
Beta-galactosidase, sequence (Q8VNN2 whole entry): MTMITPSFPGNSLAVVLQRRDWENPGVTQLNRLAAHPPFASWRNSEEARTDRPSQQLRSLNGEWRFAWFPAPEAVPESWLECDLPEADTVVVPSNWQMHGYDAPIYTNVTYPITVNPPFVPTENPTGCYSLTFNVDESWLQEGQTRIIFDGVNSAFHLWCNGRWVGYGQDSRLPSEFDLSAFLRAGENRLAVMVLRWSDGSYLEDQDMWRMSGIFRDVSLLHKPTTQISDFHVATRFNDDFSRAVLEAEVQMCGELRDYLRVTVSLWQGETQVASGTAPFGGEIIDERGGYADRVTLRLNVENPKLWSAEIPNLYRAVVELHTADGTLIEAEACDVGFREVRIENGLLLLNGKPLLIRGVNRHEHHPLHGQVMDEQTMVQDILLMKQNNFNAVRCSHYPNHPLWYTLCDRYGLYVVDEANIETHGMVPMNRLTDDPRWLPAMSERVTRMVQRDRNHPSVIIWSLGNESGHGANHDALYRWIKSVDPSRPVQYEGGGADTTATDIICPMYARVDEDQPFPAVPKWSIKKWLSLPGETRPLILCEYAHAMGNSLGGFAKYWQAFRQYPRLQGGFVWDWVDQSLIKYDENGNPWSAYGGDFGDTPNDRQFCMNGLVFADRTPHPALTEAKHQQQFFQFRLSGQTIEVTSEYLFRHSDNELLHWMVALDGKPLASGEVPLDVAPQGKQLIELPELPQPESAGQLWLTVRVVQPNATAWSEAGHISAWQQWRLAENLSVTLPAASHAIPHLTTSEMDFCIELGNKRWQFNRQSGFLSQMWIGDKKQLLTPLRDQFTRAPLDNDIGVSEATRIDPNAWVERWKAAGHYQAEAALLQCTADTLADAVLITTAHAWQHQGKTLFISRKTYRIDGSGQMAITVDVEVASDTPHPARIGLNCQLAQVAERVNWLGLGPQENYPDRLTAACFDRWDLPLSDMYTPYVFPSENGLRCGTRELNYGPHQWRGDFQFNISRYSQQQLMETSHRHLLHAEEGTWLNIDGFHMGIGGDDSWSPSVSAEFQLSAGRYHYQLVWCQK

T1 sequence (Q9UBE0 whole entry): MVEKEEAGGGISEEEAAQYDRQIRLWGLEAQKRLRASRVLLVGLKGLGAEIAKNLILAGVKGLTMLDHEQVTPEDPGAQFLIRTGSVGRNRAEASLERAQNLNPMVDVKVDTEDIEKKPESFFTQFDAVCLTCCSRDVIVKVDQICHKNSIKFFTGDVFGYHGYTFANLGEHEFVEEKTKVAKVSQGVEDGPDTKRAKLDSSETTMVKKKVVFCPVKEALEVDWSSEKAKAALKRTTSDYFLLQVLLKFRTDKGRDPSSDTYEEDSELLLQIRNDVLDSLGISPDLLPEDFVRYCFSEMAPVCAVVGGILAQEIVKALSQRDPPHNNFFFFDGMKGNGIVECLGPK
T1 sequence (Q9UBT2 whole entry): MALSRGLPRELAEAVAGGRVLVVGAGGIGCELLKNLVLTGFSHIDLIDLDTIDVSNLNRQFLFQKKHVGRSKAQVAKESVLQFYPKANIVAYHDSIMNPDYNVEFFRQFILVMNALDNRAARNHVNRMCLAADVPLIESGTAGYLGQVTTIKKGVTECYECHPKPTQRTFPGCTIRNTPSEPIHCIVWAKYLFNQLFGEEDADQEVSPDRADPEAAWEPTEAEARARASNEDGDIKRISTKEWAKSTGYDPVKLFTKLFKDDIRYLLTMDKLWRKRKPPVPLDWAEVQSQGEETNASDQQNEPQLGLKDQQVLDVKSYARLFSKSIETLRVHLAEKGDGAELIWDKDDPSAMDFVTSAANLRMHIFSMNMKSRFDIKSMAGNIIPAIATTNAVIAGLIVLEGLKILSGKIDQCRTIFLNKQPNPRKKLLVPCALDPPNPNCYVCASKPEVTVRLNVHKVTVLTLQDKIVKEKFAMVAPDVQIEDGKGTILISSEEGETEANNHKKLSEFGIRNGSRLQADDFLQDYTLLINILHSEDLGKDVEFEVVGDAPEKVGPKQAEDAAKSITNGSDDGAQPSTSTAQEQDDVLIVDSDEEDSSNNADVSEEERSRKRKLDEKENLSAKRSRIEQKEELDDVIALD
X-box-binding protein 1, sequence (P17861 whole entry): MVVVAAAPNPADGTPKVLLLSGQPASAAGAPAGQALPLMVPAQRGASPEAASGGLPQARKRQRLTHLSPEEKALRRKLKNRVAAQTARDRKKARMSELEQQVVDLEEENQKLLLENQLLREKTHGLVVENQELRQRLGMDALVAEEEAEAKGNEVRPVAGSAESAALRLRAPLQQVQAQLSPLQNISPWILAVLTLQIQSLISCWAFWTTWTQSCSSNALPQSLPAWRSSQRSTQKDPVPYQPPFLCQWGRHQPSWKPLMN
NACHT, LRR and PYD domains-containing protein 1, sequence (Q9C000 1-1212 limits assumed): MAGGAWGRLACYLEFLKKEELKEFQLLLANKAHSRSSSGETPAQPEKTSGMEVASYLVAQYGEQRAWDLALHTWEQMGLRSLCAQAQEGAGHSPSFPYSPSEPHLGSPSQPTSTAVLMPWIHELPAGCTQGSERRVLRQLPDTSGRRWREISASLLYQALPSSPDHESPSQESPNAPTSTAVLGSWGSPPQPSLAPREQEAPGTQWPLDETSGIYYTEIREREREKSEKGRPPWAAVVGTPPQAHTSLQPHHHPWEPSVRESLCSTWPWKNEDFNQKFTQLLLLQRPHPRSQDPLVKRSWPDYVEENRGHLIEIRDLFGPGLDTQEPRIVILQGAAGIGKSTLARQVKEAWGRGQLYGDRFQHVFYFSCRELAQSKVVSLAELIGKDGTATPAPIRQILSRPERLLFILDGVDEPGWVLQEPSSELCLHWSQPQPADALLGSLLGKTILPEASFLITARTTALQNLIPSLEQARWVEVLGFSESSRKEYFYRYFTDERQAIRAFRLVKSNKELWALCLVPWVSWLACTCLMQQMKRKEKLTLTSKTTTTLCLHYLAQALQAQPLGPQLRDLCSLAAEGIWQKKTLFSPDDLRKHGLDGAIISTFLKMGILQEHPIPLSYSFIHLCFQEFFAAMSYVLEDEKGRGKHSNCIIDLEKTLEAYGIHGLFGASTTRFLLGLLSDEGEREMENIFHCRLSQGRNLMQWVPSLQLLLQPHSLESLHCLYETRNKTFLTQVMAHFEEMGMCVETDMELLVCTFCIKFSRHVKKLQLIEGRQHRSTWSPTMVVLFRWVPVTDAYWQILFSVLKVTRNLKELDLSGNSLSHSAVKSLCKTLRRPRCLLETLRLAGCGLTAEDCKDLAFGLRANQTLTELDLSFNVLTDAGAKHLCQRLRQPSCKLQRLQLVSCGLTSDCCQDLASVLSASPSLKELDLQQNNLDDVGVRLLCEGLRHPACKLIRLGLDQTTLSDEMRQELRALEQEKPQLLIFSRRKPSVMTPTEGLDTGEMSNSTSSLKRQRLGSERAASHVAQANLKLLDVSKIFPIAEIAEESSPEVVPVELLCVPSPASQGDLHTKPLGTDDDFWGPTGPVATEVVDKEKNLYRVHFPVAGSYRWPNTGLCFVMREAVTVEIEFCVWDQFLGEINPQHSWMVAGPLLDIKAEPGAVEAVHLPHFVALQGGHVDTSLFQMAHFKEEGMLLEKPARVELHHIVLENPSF
NACHT, LRR and PYD domains-containing protein 1, sequence (Q9C000 1213-1473 limits assumed): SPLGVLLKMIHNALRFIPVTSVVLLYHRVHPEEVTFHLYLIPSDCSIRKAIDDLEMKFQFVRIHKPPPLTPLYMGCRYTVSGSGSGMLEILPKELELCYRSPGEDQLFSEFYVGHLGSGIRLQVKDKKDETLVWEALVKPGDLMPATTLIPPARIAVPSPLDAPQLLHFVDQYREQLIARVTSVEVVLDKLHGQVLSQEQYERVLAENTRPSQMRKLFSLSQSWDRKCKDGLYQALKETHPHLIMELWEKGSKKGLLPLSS

## O=C1NC(=O)C(=Cc2c[nH]c3ccc(OCc4ccccc4)cc23)C(=O)N1
[1]
  IC50: 20.9 µM (active)
[2]
  IC50: 11 µM (active)
[3]
  EC50: > 99 µM (inactive)
[4]
  EC50: > 99 µM (inactive)

## CC(=O)c1ccc(NC(=O)Nc2ccc(Cl)cc2)cc1
[5]
  IC50: 2.98 µM (active)
[6]
  IC50: 35.9 µM (active)

## COc1ccccc1C(=O)Oc1ccc(C(C)C)cc1
[7]
  Absolute IC50 (XBP1): 10 µM

## CCOC(=O)c1c(C)[nH]c(C(=O)COC(=O)c2[nH]c(C)c(C(C)=O)c2C)c1C
[7]
  Absolute IC50 (XBP1): 10 µM

## Cn1c(=O)n(C)c2cc(/C=C3/NC(=O)N(Cc4ccccc4)C3=O)ccc21
[8]
  IC50: 11.2 µM (not active)
[9]
  IC50: > 111 µM (not active)
[10]
  IC50: > 80 µM (inactive)

## CC(C)(C)c1ccc(-n2ncc3c2CCCC3NC(=O)C2(C(N)=O)CC2)cc1 (stereo unspecified)
[10]
  IC50: > 80 µM (inactive)
[11]
  AC50: 4.11 µM (active)
[12]
  AC50: 589 nM (active)
[13]
  AC50: 807 nM (active)
[14]
  AC50: 13.4 µM (active)
[15]
  IC50: 408 nM (active)
[16]
  EC50: > 29.9 µM (inactive)

## O=[N+]([O-])c1ccccc1/C=C/C=N/n1c(S)nnc1-c1cc(-c2ccccc2)[nH]n1
[1]
  IC50: 10.3 µM (active)
[2]
  IC50: 26.8 µM (active)

## C=C1CC[C@@]2(O)[C@H]3Cc4ccc(O)c5c4[C@@]2(CCN3CC2CC2)[C@H]1O5
[17]
  EC50: > 31.5 µM (inactive)

Source: ChEMBL document CHEMBL1201862, “PubChem BioAssay data set” (2004)
